Results on 17 compounds are retold here after article doi:10.1101/2025.08.20.671340v1 (biorxiv, 2025).

What is called IC50 is the concentration that gives 50% inhibition. High values mean a need for much substance, low ones inhibition by little substance. Broadly, the half-life is the time in which the quantity being followed falls by half. A low value points to rapid decline.

The target of data set [1] is T1, hAChE (human acetylcholinesterase) (Homo sapiens, UniProt P22303). Nature of the data set: enzyme inhibition assay. Format: biochemical.
Data set [2] addresses T1, hAChE (human acetylcholinesterase). Kind of data set: enzyme inhibition assay. The following applies: footnote d not shown: inhibition or residual activity and concentration unknown. Format: biochemical.
A further data set can be described thus: physchem. The following applies: pbs.
For data set [3], the target named is T1, hAChE (human acetylcholinesterase). Kind of data set: biochemical.

T1 sequence (P22303 32-614): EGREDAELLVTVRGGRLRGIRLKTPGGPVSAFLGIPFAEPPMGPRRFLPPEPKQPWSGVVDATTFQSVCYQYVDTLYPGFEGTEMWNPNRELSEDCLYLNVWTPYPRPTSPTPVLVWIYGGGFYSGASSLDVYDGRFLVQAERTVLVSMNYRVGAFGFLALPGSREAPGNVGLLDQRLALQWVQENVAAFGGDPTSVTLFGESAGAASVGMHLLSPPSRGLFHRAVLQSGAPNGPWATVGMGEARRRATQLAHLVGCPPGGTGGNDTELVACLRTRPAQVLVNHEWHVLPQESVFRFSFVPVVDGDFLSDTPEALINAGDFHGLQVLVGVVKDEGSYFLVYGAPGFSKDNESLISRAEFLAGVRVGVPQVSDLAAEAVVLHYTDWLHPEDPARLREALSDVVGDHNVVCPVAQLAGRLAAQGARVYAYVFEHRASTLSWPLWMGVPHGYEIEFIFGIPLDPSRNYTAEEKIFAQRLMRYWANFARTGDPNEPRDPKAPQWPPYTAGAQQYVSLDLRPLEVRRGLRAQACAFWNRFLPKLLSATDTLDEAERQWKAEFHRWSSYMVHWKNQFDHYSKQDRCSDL

In turn, `CN(CCC1CCCCCC1)Cc1c[nH]c2c([Te]C(=O)N(C)C)cccc12` [compound 4] yielded an IC50 in data set [1] of 13.2 µM.

In data set [1], `CN(CCC1CCCCCC1)Cc1c[nH]c2c(N(C)C(=O)OC(C(F)(F)F)C(F)(F)F)cccc12` [compound 8] had an IC50 of 25.8 µM.

`CN(CCC1CCCCCC1)Cc1c[nH]c2c(N(C)C(=O)OCC(F)(F)F)cccc12` [compound 7]: the “% (footnote d)” value in data set [2] was 51.6 ± 0.8%.

On to `CN(CCC1CCCCCC1)Cc1c[nH]c2c(N(C)C(=O)n3ccnc3)cccc12` [compound 26], for which inhibition in data set [1] was half-maximal at 47.3 µM (IC50). Also, the half-life in the data set “physchem” was approximately 14 days.

In data set [1], `CN(CCC1CCCCCC1)Cc1c[nH]c2c(N(C)C(=O)OC(C(F)(F)F)(C(F)(F)F)C(F)(F)F)cccc12` [compound 9] returned an IC50 of 6.7 µM.

In turn, `CN(CCC1CCCCCC1)Cc1c[nH]c2c(N(C)C(=O)Oc3c(F)c(F)c(F)c(F)c3F)cccc12` [compound 11] yielded a half-maximal inhibitory concentration (IC50) in data set [1] of 0.788 ± 0.176 µM.

Regarding `CN(CCC1CCCCCC1)Cc1c[nH]c2c(SC(=O)N(C)C)cccc12` [compound 2], in data set [1], the IC50 worked out at 11.1 µM.

`CN(CCC1CCCCCC1)Cc1c[nH]c2c([Se]C(=O)N(C)C)cccc12` [compound 3]: in data set [1], the IC50 is 9.75 µM.

In the case of `CN(CCC1CCCCCC1)Cc1c[nH]c2c(N(C)C(=O)n3cnc([N+](=O)[O-])c3)cccc12` [compound 27], it took 15.9 µM to reach half-maximal inhibition in data set [1] (IC50).

The compound `CN(CCC1CCCCCC1)Cc1c[nH]c2c(N(C)C(=O)Oc3ccccc3)cccc12` [compound 10] yielded an IC50 in data set [1] of 21.2 µM.

Compound `CC[Se]C(=O)N(C)c1cccc2c(CN(C)CCC3CCCCCC3)c[nH]c12` [compound 24] had an IC50 in data set [1] of 30.2 µM.

On to `CN(CCC1CCCCCC1)Cc1c[nH]c2c(N(C)C(=O)On3ccnc3)cccc12` [compound 14], for which the midpoint of inhibition in data set [1], the IC50, lay at 24.2 µM. For the same compound, the half-life in the data set “physchem” was approximately 18 days.

Consider `CN(CCC1CCCCCC1)Cc1c[nH]c2c(N(C)C(=O)F)cccc12` [compound 6], for which inhibition in data set [1] was half-maximal at 0.177 ± 0.006 µM (IC50). In addition, the half-life in the data set “physchem” is approximately 4 days.

On to `CN(CCC1CCCCCC1)Cc1c[nH]c2c(NC(=O)n3ccnc3)cccc12` [compound 33, N-(3-(((2-Cycloheptylethyl)(methyl)amino)methyl)-1H-indol-7-yl)-1H-imidazole-1-carboxamide], for which the IC50 in data set [3] came out at 17.3 µM.

Regarding `CN(CCC1CCCCCC1)Cc1c[nH]c2c(N(C)C(=O)[Se]c3ccccc3)cccc12` [compound 25], in data set [2], the “% (footnote d)” value was 53.6 ± 2.7%.

Compound `CN(CCC1CCCCCC1)Cc1c[nH]c2c(N(C)C(=O)Sc3nnnn3C)cccc12` [compound 23] yielded an IC50 in data set [1] of 16.9 µM. The compound further gave a half-life in the data set “physchem” of approximately 38 days.

As for `CN(CCC1CCCCCC1)Cc1c[nH]c2c(N(C)C(=O)Sc3nncn3C)cccc12` [compound 22], the IC50 in data set [1] turned out to be 21.8 µM. In addition, in the data set “physchem”, the half-life was approximately 25 days.
